# Several values for one entry are separate records, joined by “and”; a condition that tells them apart may be missing. Identical values can stand only once.
# Tests used:
# Assay in all cases: KINOMEscan competition binding
# Conditions in all cases: compound 10.0 µM
# MAP3K3 (human) = MAP3K3 (human) (UniProt Q99759)
# FER (human) = FER (human) (UniProt P16591)
# ROS1 (human) = ROS1 (human) (UniProt P08922)
# MAPK4 (human) = MAPK4 (human) (UniProt P31152)
# RPS6KA6 KD1 (human) = RPS6KA6 KD1 (human) (UniProt Q9UK32)
# IKBKE (human) = IKBKE (human) (UniProt Q14164)
# STK32B (human) = STK32B (human) (UniProt Q9NY57)
# STK38L (human) = STK38L (human) (UniProt Q9Y2H1)
# CDKL2 (human) = CDKL2 (human) (UniProt Q92772)
# NUAK1 (human) = NUAK1 (human) (UniProt O60285)
# PKN1 (human) = PKN1 (human) (UniProt Q16512)
# MAPK13 (human) = MAPK13 (human) (UniProt O15264)
# TLK1 (human) = TLK1 (human) (UniProt Q9UKI8)
# PRKACB (human) = PRKACB (human) (UniProt P22694)
# DCLK3 (human) = DCLK3 (human) (UniProt Q9C098)
# PRKAA2 (human) = PRKAA2 (human) (UniProt P54646)
# CDK4 CCND1 (human) = CDK4 CCND1 (human) (UniProt P11802+P24385)
# MAP3K4 (human) = MAP3K4 (human) (UniProt Q9Y6R4)
# ACVR2B (human) = ACVR2B (human) (UniProt Q13705)
# DAPK2 (human) = DAPK2 (human) (UniProt Q9UIK4)
# EPHA2 (human) = EPHA2 (human) (UniProt P29317)
# IRAK1 (human) = IRAK1 (human) (UniProt P51617)
# PIP5K1C (human) = PIP5K1C (human) (UniProt O60331)
# TEK (human) = TEK (human) (UniProt Q02763)
# TNK1 (human) = TNK1 (human) (UniProt Q13470)
# EPHA3 (human) = EPHA3 (human) (UniProt P29320)
# CSNK1A1L (human) = CSNK1A1L (human) (UniProt Q8N752)
# CLK2 (human) = CLK2 (human) (UniProt P49760)
# MAPK15 (human) = MAPK15 (human) (UniProt Q8TD08)
# PRKG1 (human) = PRKG1 (human) (UniProt Q13976)
# CLK4 (human) = CLK4 (human) (UniProt Q9HAZ1)
# EPHB6 (human) = EPHB6 (human) (UniProt O15197)
# INSRR (human) = INSRR (human) (UniProt P14616)
# MAP2K1 (human) = MAP2K1 (human) (UniProt Q02750)
# ALK (human) = ALK (human) (UniProt Q9UM73)
# ERBB3 (human) = ERBB3 (human) (UniProt P21860)
# WEE1 (human) = WEE1 (human) (UniProt P30291)
# FLT3 (human) = FLT3 (human) (UniProt P36888)
# PRKG2 (human) = PRKG2 (human) (UniProt Q13237)
# PHKG1 (human) = PHKG1 (human) (UniProt Q16816)
# Chain of FLT3 (human) (P36888 whole entry, looked up): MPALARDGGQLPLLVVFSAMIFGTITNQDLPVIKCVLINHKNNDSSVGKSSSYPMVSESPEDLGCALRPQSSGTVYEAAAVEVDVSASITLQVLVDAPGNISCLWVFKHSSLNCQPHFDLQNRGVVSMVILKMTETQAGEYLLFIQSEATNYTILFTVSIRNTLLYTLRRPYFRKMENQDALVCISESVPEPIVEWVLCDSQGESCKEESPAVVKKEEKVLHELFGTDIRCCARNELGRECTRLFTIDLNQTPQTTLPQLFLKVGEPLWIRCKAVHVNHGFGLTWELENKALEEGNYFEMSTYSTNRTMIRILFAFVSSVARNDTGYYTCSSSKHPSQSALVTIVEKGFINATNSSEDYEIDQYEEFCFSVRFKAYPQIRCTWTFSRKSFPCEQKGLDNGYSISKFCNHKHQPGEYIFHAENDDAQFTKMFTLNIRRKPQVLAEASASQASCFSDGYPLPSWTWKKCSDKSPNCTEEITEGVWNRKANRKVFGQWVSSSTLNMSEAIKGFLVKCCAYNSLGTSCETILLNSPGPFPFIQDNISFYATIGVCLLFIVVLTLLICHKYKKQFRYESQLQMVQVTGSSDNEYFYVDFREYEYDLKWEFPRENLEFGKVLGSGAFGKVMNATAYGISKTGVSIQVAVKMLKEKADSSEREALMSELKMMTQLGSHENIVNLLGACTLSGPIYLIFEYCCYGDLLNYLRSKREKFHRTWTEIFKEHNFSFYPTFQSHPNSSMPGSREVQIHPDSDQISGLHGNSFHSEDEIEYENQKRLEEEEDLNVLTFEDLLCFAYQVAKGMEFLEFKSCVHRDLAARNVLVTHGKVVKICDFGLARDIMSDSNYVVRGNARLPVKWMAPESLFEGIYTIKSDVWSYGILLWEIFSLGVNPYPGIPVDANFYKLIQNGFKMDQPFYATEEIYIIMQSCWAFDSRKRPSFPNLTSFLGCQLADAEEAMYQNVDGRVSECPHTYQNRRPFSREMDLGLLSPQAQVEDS
# Chain of FER (human) (P16591 whole entry, looked up): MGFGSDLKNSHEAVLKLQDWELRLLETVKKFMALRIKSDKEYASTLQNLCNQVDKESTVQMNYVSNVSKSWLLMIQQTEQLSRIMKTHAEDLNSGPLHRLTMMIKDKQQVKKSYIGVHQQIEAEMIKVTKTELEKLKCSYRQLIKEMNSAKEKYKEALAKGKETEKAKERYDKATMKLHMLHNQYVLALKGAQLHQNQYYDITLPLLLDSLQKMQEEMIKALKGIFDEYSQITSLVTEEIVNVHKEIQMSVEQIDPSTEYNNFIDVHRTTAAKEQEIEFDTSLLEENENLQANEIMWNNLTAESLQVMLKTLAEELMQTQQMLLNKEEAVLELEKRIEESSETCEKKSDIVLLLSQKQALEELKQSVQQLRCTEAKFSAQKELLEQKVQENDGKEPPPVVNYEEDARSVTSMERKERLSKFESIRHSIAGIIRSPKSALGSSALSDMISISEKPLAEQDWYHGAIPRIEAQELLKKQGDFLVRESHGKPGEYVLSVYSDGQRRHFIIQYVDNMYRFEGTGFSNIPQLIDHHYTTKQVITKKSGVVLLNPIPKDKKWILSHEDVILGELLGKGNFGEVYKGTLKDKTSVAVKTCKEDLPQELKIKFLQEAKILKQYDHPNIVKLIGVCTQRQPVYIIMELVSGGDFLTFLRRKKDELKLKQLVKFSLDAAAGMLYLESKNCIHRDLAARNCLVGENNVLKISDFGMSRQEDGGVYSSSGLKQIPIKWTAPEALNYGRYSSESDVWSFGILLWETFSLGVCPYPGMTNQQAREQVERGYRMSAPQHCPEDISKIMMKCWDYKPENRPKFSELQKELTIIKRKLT
# Chain of WEE1 (human) (P30291 whole entry, looked up): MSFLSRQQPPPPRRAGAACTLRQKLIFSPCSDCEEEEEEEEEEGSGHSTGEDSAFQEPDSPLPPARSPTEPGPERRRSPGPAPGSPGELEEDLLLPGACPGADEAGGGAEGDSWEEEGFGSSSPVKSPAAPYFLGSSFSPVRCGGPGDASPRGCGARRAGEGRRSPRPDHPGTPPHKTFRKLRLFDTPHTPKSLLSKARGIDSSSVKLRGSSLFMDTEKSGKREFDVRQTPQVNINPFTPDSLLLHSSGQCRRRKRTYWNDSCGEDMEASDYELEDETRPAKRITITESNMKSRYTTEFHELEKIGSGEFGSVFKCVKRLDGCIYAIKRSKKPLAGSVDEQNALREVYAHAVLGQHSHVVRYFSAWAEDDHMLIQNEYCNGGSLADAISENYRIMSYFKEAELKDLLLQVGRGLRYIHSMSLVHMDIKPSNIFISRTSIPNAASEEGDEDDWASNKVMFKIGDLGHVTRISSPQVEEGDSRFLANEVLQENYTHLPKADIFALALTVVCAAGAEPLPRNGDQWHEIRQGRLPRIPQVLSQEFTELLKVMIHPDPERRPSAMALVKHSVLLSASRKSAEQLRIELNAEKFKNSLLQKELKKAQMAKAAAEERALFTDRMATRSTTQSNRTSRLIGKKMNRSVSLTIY
# Chain of STK38L (human) (Q9Y2H1 whole entry, looked up): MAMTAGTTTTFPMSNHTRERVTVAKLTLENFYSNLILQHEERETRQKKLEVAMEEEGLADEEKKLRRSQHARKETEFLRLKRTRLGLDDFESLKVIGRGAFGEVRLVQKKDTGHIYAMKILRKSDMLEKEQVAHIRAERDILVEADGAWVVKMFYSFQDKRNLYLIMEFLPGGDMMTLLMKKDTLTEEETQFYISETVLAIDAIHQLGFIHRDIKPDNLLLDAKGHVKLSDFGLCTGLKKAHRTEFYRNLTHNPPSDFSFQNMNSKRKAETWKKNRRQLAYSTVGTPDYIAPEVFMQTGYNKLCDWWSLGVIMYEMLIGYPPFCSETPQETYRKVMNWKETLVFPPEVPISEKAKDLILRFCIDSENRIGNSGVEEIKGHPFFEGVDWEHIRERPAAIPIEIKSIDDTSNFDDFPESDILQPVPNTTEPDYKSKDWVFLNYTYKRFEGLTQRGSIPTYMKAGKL
# Chain of IKBKE (human) (Q14164 whole entry, looked up): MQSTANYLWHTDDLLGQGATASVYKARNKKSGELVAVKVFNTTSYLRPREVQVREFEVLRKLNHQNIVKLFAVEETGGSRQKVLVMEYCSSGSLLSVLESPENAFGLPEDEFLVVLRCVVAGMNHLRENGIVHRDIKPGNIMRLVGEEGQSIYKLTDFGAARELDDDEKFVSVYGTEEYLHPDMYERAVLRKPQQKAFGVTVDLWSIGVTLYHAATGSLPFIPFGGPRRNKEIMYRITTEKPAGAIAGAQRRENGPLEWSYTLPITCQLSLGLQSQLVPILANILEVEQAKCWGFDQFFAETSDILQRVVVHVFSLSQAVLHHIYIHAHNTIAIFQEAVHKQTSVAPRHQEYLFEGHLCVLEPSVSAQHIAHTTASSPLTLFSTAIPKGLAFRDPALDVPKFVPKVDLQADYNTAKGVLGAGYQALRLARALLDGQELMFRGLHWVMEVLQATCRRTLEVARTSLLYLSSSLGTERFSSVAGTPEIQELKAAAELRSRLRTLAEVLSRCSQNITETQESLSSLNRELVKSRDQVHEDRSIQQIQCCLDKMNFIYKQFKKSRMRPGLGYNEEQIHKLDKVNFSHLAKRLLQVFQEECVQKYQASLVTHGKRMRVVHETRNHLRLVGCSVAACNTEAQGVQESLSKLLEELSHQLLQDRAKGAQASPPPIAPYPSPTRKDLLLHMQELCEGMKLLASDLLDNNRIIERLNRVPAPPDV
# Chain of ACVR2B (human) (Q13705 whole entry, looked up): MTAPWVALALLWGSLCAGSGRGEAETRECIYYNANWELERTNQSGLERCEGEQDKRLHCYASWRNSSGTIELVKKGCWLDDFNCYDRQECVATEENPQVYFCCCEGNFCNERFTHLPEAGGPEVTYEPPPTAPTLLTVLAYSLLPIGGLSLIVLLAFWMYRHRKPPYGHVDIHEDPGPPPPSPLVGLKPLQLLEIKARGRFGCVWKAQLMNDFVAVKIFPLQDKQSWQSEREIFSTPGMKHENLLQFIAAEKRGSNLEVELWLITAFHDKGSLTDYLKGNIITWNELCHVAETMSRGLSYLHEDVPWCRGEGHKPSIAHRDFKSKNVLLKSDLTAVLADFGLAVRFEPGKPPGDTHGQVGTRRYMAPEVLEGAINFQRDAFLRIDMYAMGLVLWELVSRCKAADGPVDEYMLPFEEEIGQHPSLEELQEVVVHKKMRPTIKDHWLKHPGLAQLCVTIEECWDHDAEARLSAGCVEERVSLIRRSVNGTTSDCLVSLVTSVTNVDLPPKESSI
# Chain of PRKAA2 (human) (P54646 whole entry, looked up): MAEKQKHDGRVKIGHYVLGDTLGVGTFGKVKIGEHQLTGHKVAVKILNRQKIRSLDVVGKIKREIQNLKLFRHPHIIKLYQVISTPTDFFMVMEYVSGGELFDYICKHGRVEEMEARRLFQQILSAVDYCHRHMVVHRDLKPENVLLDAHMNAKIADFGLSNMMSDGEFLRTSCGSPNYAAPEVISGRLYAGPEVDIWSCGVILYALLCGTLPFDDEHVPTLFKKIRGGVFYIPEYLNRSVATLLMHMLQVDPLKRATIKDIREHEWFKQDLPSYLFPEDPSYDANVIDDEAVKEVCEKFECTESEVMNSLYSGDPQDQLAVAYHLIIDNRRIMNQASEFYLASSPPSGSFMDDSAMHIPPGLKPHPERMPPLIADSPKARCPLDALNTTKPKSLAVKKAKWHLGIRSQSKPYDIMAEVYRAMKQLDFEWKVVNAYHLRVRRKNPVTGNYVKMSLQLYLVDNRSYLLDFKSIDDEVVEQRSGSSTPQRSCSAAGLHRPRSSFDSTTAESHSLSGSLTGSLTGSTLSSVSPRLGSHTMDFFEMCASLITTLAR
# Chain of CSNK1A1L (human) (Q8N752 whole entry, looked up): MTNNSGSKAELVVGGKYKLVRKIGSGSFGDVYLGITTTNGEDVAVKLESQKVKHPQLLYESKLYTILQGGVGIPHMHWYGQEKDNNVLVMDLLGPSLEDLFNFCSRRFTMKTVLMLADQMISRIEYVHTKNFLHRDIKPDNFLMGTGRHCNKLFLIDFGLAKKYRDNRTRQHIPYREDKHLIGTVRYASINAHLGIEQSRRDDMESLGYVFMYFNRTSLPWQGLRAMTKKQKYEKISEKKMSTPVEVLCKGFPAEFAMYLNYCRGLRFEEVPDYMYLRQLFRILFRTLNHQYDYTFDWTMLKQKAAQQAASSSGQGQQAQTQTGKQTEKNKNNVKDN
Compound,"kinase still bound, per cent of control (MAP3K3 (human))","kinase still bound, per cent of control (FER (human))","kinase still bound, per cent of control (ROS1 (human))","kinase still bound, per cent of control (MAPK4 (human))","kinase still bound, per cent of control (RPS6KA6 KD1 (human))","kinase still bound, per cent of control (IKBKE (human))","kinase still bound, per cent of control (STK32B (human))","kinase still bound, per cent of control (STK38L (human))","kinase still bound, per cent of control (CDKL2 (human))","kinase still bound, per cent of control (NUAK1 (human))","kinase still bound, per cent of control (PKN1 (human))","kinase still bound, per cent of control (MAPK13 (human))","kinase still bound, per cent of control (TLK1 (human))","kinase still bound, per cent of control (PRKACB (human))","kinase still bound, per cent of control (DCLK3 (human))","kinase still bound, per cent of control (PRKAA2 (human))","kinase still bound, per cent of control (CDK4 CCND1 (human))","kinase still bound, per cent of control (MAP3K4 (human))","kinase still bound, per cent of control (ACVR2B (human))","kinase still bound, per cent of control (DAPK2 (human))",also measured
N#C/C(=C1/Nc2ccccc2S1)c1ccnc(NCCc2cccnc2)n1,74%,100%,100%,96%,28%,100%,100%,100%,98%,100%,95%,51%,57%,100%,100%,100%,32%,100%,98%,34%,"kinase still bound, per cent of control (EPHA2 (human)): 80%; kinase still bound, per cent of control (IRAK1 (human)): 6.2%; kinase still bound, per cent of control (PIP5K1C (human)): 8.2%; kinase still bound, per cent of control (TEK (human)): 100%; kinase still bound, per cent of control (TNK1 (human)): 46%; kinase still bound, per cent of control (EPHA3 (human)): 73%; kinase still bound, per cent of control (CSNK1A1L (human)): 67%; kinase still bound, per cent of control (CLK2 (human)): 3.7%; kinase still bound, per cent of control (MAPK15 (human)): 73%; kinase still bound, per cent of control (PRKG1 (human)): 100%; kinase still bound, per cent of control (CLK4 (human)): 29%; kinase still bound, per cent of control (EPHB6 (human)): 3.2%; kinase still bound, per cent of control (INSRR (human)): 100%; kinase still bound, per cent of control (MAP2K1 (human)): 9.6%; kinase still bound, per cent of control (ALK (human)): 100%; kinase still bound, per cent of control (ERBB3 (human)): 36%; kinase still bound, per cent of control (WEE1 (human)): 100%; kinase still bound, per cent of control (FLT3 (human)): 100%; kinase still bound, per cent of control (PRKG2 (human)): 81%; kinase still bound, per cent of control (PHKG1 (human)): 100%"
COc1cc2ncnc(Nc3cccc(Cl)c3)c2cc1OC,6.6%,82%,61%,16%,46%,55%,100%,87%,84%,98%,94%,100%,87%,100%,52%,100%,90%,83%,54%,60%,"kinase still bound, per cent of control (EPHA2 (human)): 62%; kinase still bound, per cent of control (IRAK1 (human)): 5.6%; kinase still bound, per cent of control (PIP5K1C (human)): 14%; kinase still bound, per cent of control (TEK (human)): 97%; kinase still bound, per cent of control (TNK1 (human)): 26%; kinase still bound, per cent of control (EPHA3 (human)): 28%; kinase still bound, per cent of control (CSNK1A1L (human)): 72%; kinase still bound, per cent of control (CLK2 (human)): 53%; kinase still bound, per cent of control (MAPK15 (human)): 100%; kinase still bound, per cent of control (PRKG1 (human)): 100%; kinase still bound, per cent of control (CLK4 (human)): 37%; kinase still bound, per cent of control (EPHB6 (human)): 16%; kinase still bound, per cent of control (INSRR (human)): 100%; kinase still bound, per cent of control (MAP2K1 (human)): 25%; kinase still bound, per cent of control (ALK (human)): 25%; kinase still bound, per cent of control (ERBB3 (human)): 18%; kinase still bound, per cent of control (WEE1 (human)): 93%; kinase still bound, per cent of control (FLT3 (human)): 42% and 58%; kinase still bound, per cent of control (PRKG2 (human)): 82%; kinase still bound, per cent of control (PHKG1 (human)): 67%"
